Starred links: 1 amine or outer side, 2 acyl side, 3 side chain; linkers in the order of their positions; H or OH if unused. Positions of bridges follow the written chain, without caps; N, C: chain ends. Non-standard residues stand in square brackets, D forms with d. Residues, ends and D or L forms follow the SMILES beside them. Chains are numbered I, II in the order given. Actinocin(9to1) = Cc1c2oc3c(C)ccc(C(=O)[*:1])c3nc-2c(C(=O)[*:2])c(N)c1=O; NMeV = CN[C@H](C(=O)O)C(C)C; Sar = CNCC(=O)O
Experiments:
[1] = test system: BV2 PU.1-Luciferase cells; assay: Cell viability (Hoechst staining) in BV2 PU.1-Luciferase cells; assay type: cell-based, mouse
Procedure: The BV2 PU.1-Luciferase cells (referred to as “cells” from here onward) were plated into a 384-well plate, using an automatic dispenser, 2000 cells per well in 30 μL of media composed of RPMI (Sigma-Aldrich), 10% FBS, 1% PenStrep (50 mg/mL) and 1% G418 (50 mg/mL) was plated. […] For reproducibility, each pin array with 384 compounds was added to 4 plates of cells. The cells and compounds were incubated at 37° C. for a period of time sufficient for the compounds to have an effect on the cells (about 2 days). Subsequently, automatic of 30 μL of BrightGlo (Promega) was dispensed into 2 of the 4 plates, in order to lyse the cells and drive the luminescence reaction whereafter the luminescence intensity was measured by a plate reader (Perkin Elmer EnVision). The two other plates were fixed by automatically dispensing 30 μL of 10% formaldehyde with 2μL Hoechst per 1 mL formaldehyde which were left at room temperature for one hour, followed by plate reading (Acumen (TTPLabTech)). A compound transfer and treatment would be repeated if reproducibility between the luminescence plates and/or the fixed Hoechst plates was lacking. […] Luminescence values used were corrected for crosstalk. Hoechst values were total fluorescence area per well. Determination of a positive hit considered both the reduction of luminescence as well as a possible confounding reduction in cell viability. […]

[2] = test system: HEK293 CMV-Luciferase cells; assay: Cell viability (Hoechst staining) in HEK293 CMV-Luciferase cells; conditions: for cell viability (Hoechst) (FIG. 2D): HEK293 CMV-Luciferase cell line, 1 μM; for cell viability (Hoechst-staining): HEK293 CMV-Luciferase line, 2-day incubation, actinomycin D, puromycin, 119113 10 μM, DB2313 2.5 μM
Procedure: Assays were conducted for percent luminescence and cell viability (Hoechst-staining) after a 2-day incubation under the following conditions. As negative controls pure DMSO and “mock” conditions (where nothing is added to the cells) were used.

[3] = test system: PU.1 dependent gene expression; assay: RT-qPCR of mRNA levels in BV2 PU.1-Luciferase cells (validation round 3); assay type: cell-based, mouse; conditions: 2-day treatment
Procedure: The Asinex1 and ChemDiv6 libraries contain molecules with unknown biological properties, but with low toxicity, high stability, and a broad structural diversity used to generate structure-activity-relationships (SAR) of the PU.1 inhibitors. […] In order to obtain the SAR, three rounds of validation were performed. In round 1, false-positive, non-specific luciferase quencher molecules were excluded using the commercially available HEK293 CMV-Luciferase line that constitutively expresses luciferase under the CMV promoter. In round 2, weak (non-significant) hits were eliminated according to degree of PU.1 inhibition in the absence of cell death. In round 3, drugs were selected that reduce PU.1-dependent gene expression with RT-qPCR.

PU.1 [4] = target: T1, PU.1 (Mus musculus, UniProt P17433); assay: Luciferase assay (luminescence) in BV2 PU.1-Luciferase reporter cells; assay type: cell-based; conditions: for IC50: luminescence reduction in BV2 PU.1-Luciferase cells, concentration-response, Hill's equation
T1 construct: endogenous in cells; host or cells: BV2 PU.1-Luciferase (mouse microglial BV2 with a 5xLBB-luciferase reporter integrated at ROSA26)
Description: PU.1 belongs to a group of transcription factors that all bind to the middle 5′-GGAA-3′ sequence. The flanking A/T rich sequence is crucial for conferring PU.1 selective binding. The flanking sequence requires unique structural properties of PU.1 and can therefore be targeted by drugs acting as allosteric inhibitors that prevent PU.1 from binding to the LBB. In order to achieve robust PU.1 binding, five tandem copies of the LBBs (5×LBB) were inserted into the luciferase promoter of the pGL4.23 plasmid. The region containing the five LBBs (5×LBB) was then subcloned into the pROSA26-1 plasmid (together with a PGKneo bpA plasmid for Neomycin/G418 resistance) that allows stable integration in chromosome 6 of the immortalized mouse microglial BV2 cell line (FIG. 2B). The stable cell line was created by selection with G418.
The BV2 PU.1-Luciferase cells (referred to as “cells” from here onward) were plated into a 384-well plate, using an automatic dispenser, 2000 cells per well in 30 μL of media composed of RPMI (Sigma-Aldrich), 10% FBS, 1% PenStrep (50 mg/mL) and 1% G418 (50 mg/mL) was plated. A robotic arm was used to transfer compounds in a 384-well format using a pin array into the plate containing the cells (here, 33 nL was transferred from a drug library containing 10 mM concentration of drugs for a final concentration of 10 μM per well). For reproducibility, each pin array with 384 compounds was added to 4 plates of cells. […] Subsequently, automatic of 30 μL of BrightGlo (Promega) was dispensed into 2 of the 4 plates, in order to lyse the cells and drive the luminescence reaction whereafter the luminescence intensity was measured by a plate reader (Perkin Elmer EnVision). The two other plates were fixed by automatically dispensing 30 μL of 10% formaldehyde with 2μL Hoechst per 1 mL formaldehyde which were left at room temperature for one hour, followed by plate reading (Acumen (TTPLabTech)). A compound transfer and treatment would be repeated if reproducibility between the luminescence plates and/or the fixed Hoechst plates was lacking. The drugs were selected and ranked according to the criteria described in FIG. 13. Luminescence values used were corrected for crosstalk. Hoechst values were total fluorescence area per well. Determination of a positive hit considered both the reduction of luminescence as well as a possible confounding reduction in cell viability. The formula used was y=(value−meanvalue)/stddev. […] Compounds were excluded if cell viability was reduced >2 standard deviations from the mean, using the same formula. The positive hits were then validated in multiple steps in order to identify true PU.1 inhibitors.
The degree of luminescence reduction of the hits was plotted with significant effective area under the curve in order to obtain an IC50.

[5] = test system: HEK293 CMV-Luciferase cells; assay: Luminescence in HEK293 CMV-Luciferase control line (luciferase quencher counter-screen); assay type: cell-based
Description: The IACS Selleck Known Bioactive library (2,100 compounds) was screened and there 35 hits were identified (˜1.7% hit rate), the Asinex1 library (12,000 compounds) was screened and 60 hits were identified (˜0.5% hit rate), and the ChemDiv6 library (44,000 compounds) was screened and 169 hits were identified (˜0.4% hit rate). The Selleck library contains drugs approved by the United States Food and Drug Administration (FDA) with known intracellular mechanisms of action which will give instant insight into pathways that block PU.1 activity. The Asinex1 and ChemDiv6 libraries contain molecules with unknown biological properties, but with low toxicity, high stability, and a broad structural diversity used to generate structure-activity-relationships (SAR) of the PU.1 inhibitors. SAR is used to design new drug libraries containing only molecules with similar structures as previous hits. In order to obtain the SAR, three rounds of validation were performed. In round 1, false-positive, non-specific luciferase quencher molecules were excluded using the commercially available HEK293 CMV-Luciferase line that constitutively expresses luciferase under the CMV promoter. In round 2, weak (non-significant) hits were eliminated according to degree of PU.1 inhibition in the absence of cell death. In round 3, drugs were selected that reduce PU.1-dependent gene expression with RT-qPCR.

PU.1 [6] = target: T1, PU.1; assay: Luciferase assay (luminescence) in BV2 PU.1-Luciferase reporter cells; assay type: cell-based; conditions: BV2 PU.1-Luciferase cells, 1 μM

Row | Structure (SMILES) | cell viability (Hoechst) (FIG. 2D) ([1]; BV2 PU.1-Luciferase cells, 1 μM) | cell viability (Hoechst-staining) ([1]; BV2 PU.1-Luciferase line, 2-day incubation, actinomycin D, puromycin, 119113 10 μM, DB2313 2.5 μM) | cell viability (Hoechst) (FIG. 2D) [2] | cell viability (Hoechst-staining) [2] | mRNA levels Apoe [3] | mRNA levels IL1β [3] | mRNA levels Lucif. [3] | mRNA levels Spi1 [3] | mRNA levels Trem2 [3] | mRNA levels Tyrobp [3] | IC50 (PU.1 [4]) [nM] | percent luminescence (PU.1 [4]; BV2 PU.1-Luciferase line, 2-day incubation, 119113 10 μM, DB2313 2.5 μM) | luminescence (FIG. 2D) ([5]; HEK293 CMV-Luciferase cell line, 1 μM) | percent luminescence ([5]; HEK293 CMV-Luciferase line, 2-day incubation, 119113 10 μM, DB2313 2.5 μM) | luminescence (FIG. 2D) (PU.1 [6])
1 | Cc1c2oc3c(C)ccc(C(=O)N[C@@H]4C(=O)N[C@H](C(C)C)C(=O)N5CCC[C@H]5C(=O)N(C)CC(=O)N(C)[C@@H](C(C)C)C(=O)O[C@@H]4C)c3nc-2c(C(=O)N[C@@H]2C(=O)N[C@H](C(C)C)C(=O)N3CCC[C@H]3C(=O)N(C)CC(=O)N(C)[C@@H](C(C)C)C(=O)O[C@@H]2C)c(N)c1=O [Actinomycin D] (I: T[dV]P[Sar][NMeV] / II: T[dV]P[Sar][NMeV]; ester I:1-I:C, II:1-II:C; linker I:N-II:N via Actinocin(9to1)) | toxic | reduced cell viability | toxic | reduced cell viability |  |  |  |  |  |  |  |  |  |  | 
2 | CC(=NCCCn1ccnc1)c1c(C(F)(F)F)[nH]n(-c2nc3ccccc3s2)c1=O [Compound E01] |  |  |  |  | 0.823 multiples of 1× | 0.986 multiples of 1× | 0.416 multiples of 1× | 0.912 multiples of 1× | 0.903 multiples of 1× | 0.988 multiples of 1× | 663 |  |  |  | 
3 | CC(C)N=C(N)c1ccc2nc(-c3ccc(OCc4cccc(COc5ccc(-c6nc7ccc(C(N)=NC(C)C)cc7[nH]6)cc5)c4F)cc3)[nH]c2c1 [DB2313, reference compound] |  |  | only in the BV2 PU.1-Luciferase line | no effect | 0.600 multiples of 1× | 0.460 multiples of 1× | 0.340 multiples of 1× | 0.820 multiples of 1× | 1.030 multiples of 1× | 1.030 multiples of 1× |  | reduction in luminescence | only in the BV2 PU.1-Luciferase line | no effect | reduced luminescence
4 | CCOC(=O)O[C@]1(C(=O)OCCl)CC[C@H]2[C@@H]3CCC4=CC(=O)C=C[C@]4(C)[C@H]3[C@@H](O)C[C@@]21C [Loteprednol, reference compound] |  |  |  |  | 1.579 multiples of 1× | 0.805 multiples of 1× | 0.265 multiples of 1× | 1.167 multiples of 1× | 0.979 multiples of 1× | 0.927 multiples of 1× | 3 |  |  |  | 
5 | C[C@@H]1C[C@H]2[C@@H]3CCC4=CC(=O)C=C[C@]4(C)[C@@]3(Cl)[C@@H](O)C[C@]2(C)[C@@]1(O)C(=O)CCl [Mometasone, reference compound] |  |  |  |  | 1.444 multiples of 1× | 0.531 multiples of 1× | 0.520 multiples of 1× | 1.016 multiples of 1× | 1.051 multiples of 1× | 1.343 multiples of 1× | 3 |  |  |  | 
6 | COc1ccc(C[C@H](N)C(=O)N[C@H]2[C@@H](O)[C@H](n3cnc4c(N(C)C)ncnc43)O[C@@H]2CO)cc1 [puromycin] |  |  | ineffective | resistant |  |  |  |  |  |  |  |  |  |  | 

Source: patent US20220340983A1, “SYSTEMS AND ASSAYS FOR IDENTIFYING PU.1 INHIBITORS” (Massachustts Institute of Technology, priority 2019, published 2022)
